This note sets out measurements from patent US20090286816A1, “MODULATORS OF METABOLISM AND THE TREATMENT OF DISORDERS RELATED THERETO” (ARENA PHARMACEUTICALS, INC., priority 2006, published 2009).

Series [1] can be described thus: Rat dose-range PK study (dose escalation pharmacokinetics). The conditions noted are these: for AUC(0-t): male, SD, plasma, PO, read-out: AUC24 hr. It is filed as in vivo. On the procedure:
Male SD rats (250-300 g) were purchased from Charles River Laboratory; upon receipt, animals were placed under light-dark cycle (6:30 am-6:30 pm lights on). They were allowed ad libitum access to water and 4 pieces of food daily (Purina Meals Rodent Diet, Product Number 5001).
Compound formulations were prepared as following: The IV injection formulation was prepared in 20% hydroxypropyl-beta-cyclodextrin with concentration of 0.667 mg/mL. […] The dosing volume for IV injection was 3 mL/Kg and for PO administration was 10 mL/Kg. Four rats were used for each dose group. […]
All rats (4 rats per group, housed individually) were fasted overnight prior to in-life phase. On the next morning, rats were received an IV (via tail vein injection) injection or gavage dose of compound starting at 8 am (IV) and 9 am (PO). Next, each rat were orbital bled at 0.085, 0.25, 0.5, 1, 2, 4, 6, 8, and 24 hr (IV) or 0.5, 1, 2, 4, 6, 8, and 24 hr (PO) to collect blood samples for PK analysis.
The blood samples were collected via orbital bleeding into tubes containing EDTA, 0.25 mL blood each time. These samples were put on ice and within 2 hours plasma was prepared by centrifugation at 3,000 rpm for 30 min at 4° C. 100 μl of plasma were transferred into a 96-tube box for PK analysis.
Plasma samples were prepared as follows. Two hundred microliters of acetonitrile containing internal standard was added to 100 μL of plasma to precipitate proteins. Samples were centrifuged at 3000 g for 5 minutes and supernatant removed for analysis by LC-MS-MS. Calibration standards and quality control samples were prepared by adding a known volume of standard stock solution (50% methanol, 50% H2O) directly into blank plasma and treated identically to collected plasma samples. Calibration standards were typically prepared in the range of 2.0 ng/mL to 110 μg/mL with linear regression for quantitation. These sample preparation steps were automated using a liquid handling workstation (Tomtec Quadra 96) in the 96-well format. Reversed phase LC-MS-MS analysis was performed using either multiple reaction or selected ion monitoring for detection of characteristic ions for each drug candidate and the internal standard used was propranolol for positive ions or chloramphenicol for negative ions.
Results were calculated by noncompartmental analysis using WinNonlin Pro version 3.1 based on plasma concentration-time profiles for individual animals. Plasma levels were determined as described above and the oral and intravenous area under the concentration vs. time curve (AUC was calculated using the linear trapezoidal rule up to the last measurable concentration and was then extrapolated to infinity) were compared to determine the % bioavailability (% F) by the following formula: Dose (IV)*AUC (oral)/Dose (oral)*AUC (IV).
There may be significant variation within the individual animals and the analytical method and that variation was evidenced by the % CV. AUMC was the first statistical moment of the AUC and was used to calculate the mean residence time (MRT=AUMC/AUC), which was the average time the compound was in the animal. The Cmax represented the maximum concentration observed, the Tmax was the time to reach that maximum concentration and the T1/2 was the calculated terminal half-life of the compound in plasma using the slope of a log concentration vs time plot if there were sufficient elimination phase data points (at least three data points in the terminal phase excluding the Cmax). Systemic clearance (CL=Dose(IV)/AUC(IV)) was the volume of fluid (containing compound) from which compound was removed completely per unit time. Volume of distribution at steady state (Vss=CL*MRT) was the extent of distribution of a drug from the plasma to the tissues at steady state.

For series [2], the target named is T1, RUP3 receptor (Homo sapiens, UniProt Q8TDV5).
T1 construct: expressed in transfected cells; host or cells: melanophores (cultured per Potenza and Lerner 1992), electroporated
T1 sequence (Q8TDV5 1-335): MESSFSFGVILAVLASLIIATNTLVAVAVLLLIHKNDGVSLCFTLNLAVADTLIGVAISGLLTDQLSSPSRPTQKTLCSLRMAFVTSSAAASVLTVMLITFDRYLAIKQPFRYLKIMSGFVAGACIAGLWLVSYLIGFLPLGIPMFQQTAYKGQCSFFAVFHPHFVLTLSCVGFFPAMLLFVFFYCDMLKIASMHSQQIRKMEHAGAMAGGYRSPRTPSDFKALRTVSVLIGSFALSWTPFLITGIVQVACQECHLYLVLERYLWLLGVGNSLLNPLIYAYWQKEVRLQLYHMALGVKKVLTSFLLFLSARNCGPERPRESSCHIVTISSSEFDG
Kind of series: RUP3 dose response in melanophores (human receptor). It is filed as cell-based. On the procedure:
(§1) Melanophores are maintained in culture as reported by Potenza, M. N. and Lerner, M. R., in Pigment Cell Research, Vol. 5, 372-378, 1992 and transfected with the RUP3 expression vector (pCMV) using electroporation. Following electroporation, the transfected cells are plated into 96 well plates for the assay. The cells are then allowed to grow for 48 hours in order to both recover from the electroporation procedure and attain maximal receptor expression levels. On the assay day, the growth medium on the cells is replaced with serum-free buffer containing 10 nM melatonin. The melatonin acts via an endogenous Gi-coupled GPCR in the melanophores to lower intracellular cAMP levels. In response to lowered cAMP levels, the melanophores translocate their pigment to the center of the cell. The net effect of this is a significant decrease in the absorbance reading of the cell monolayer in the well, measured at […]. After a 1-hour incubation in melatonin, the cells become completely pigment-aggregated. At this point a baseline absorbance reading is collected. Serial dilutions of test compounds are then added to the plate and compounds that stimulate RUP3 produce increases in intracellular cAMP levels. […] The measured increase in absorbance compared to the baseline reading allows one to quantitate the degree of receptor stimulation and plot a dose-response curve.

The target of series [3] is T2, RUP3 receptor (Mus musculus, UniProt Q7TQP3).
T2 construct: expressed in transfected cells; host or cells: melanophores (cultured per Potenza and Lerner 1992), electroporated
T2 sequence (Q7TQP3 1-335): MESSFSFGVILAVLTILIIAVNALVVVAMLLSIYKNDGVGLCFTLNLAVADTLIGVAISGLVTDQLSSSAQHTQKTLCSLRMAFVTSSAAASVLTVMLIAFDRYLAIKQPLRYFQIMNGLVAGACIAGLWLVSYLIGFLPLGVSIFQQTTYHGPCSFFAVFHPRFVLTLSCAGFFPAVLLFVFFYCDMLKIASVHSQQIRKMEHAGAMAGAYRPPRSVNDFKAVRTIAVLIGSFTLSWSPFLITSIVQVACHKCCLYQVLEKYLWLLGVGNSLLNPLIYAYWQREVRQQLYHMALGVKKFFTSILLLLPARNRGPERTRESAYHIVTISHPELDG
Kind of series: RUP3 dose response in melanophores (mouse receptor). It is filed as cell-based. On the procedure: as §1

In series [4] the target is T3, RUP3 receptor (Rattus norvegicus, UniProt Q7TQN8).
T3 construct: expressed in transfected cells; host or cells: melanophores (cultured per Potenza and Lerner 1992), electroporated
T3 sequence (Q7TQN8 1-468): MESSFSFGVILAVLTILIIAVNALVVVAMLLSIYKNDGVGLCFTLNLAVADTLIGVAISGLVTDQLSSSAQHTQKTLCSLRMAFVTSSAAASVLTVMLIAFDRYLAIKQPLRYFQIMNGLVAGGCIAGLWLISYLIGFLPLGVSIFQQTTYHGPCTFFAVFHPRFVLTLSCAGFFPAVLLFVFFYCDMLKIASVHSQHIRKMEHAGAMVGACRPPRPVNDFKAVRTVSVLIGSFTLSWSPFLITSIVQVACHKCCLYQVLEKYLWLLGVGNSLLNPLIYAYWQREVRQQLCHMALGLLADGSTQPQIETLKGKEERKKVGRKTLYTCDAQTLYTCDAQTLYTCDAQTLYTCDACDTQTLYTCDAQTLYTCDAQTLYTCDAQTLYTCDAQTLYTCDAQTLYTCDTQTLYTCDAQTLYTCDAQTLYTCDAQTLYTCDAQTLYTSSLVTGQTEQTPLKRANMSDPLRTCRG
The series is described as follows: RUP3 dose response in melanophores (rat receptor). It is filed as cell-based. Here is the method: as §1

The subject of a further series is Male Sprague Dawley rats. Kind of series: Oral glucose tolerance test (oGTT) in rats. The conditions noted are these: fasted male SD rats, p.o. 30 min before dextrose 3 g/kg, mean of six animals, dose of the group not stated (0.3, 3 or 30 mg/kg tested). The series is classed as in vivo, rat. Here is the method:
Male Sprague Dawley rats (Harlan, San Diego, Calif.) weighing approximately 350-375 g were fasted for 16 hours and randomly grouped (n=6) to receive a RUP3 agonist at 0.3, 3 or 30 mg/kg. Compounds were delivered orally via a gavage needle (p.o., volume 2 mL/kg). At time 0, levels of blood glucose were assessed using a glucometer (Accu-Chek Advantage, Roche Diagnostics), and rats were administered either vehicle (20% hydroxypropyl-beta-cyclodextrin) or test compound. Thirty minutes after administration of test compound, levels of blood glucose were again assessed, and rats were administered dextrose orally at a dose of 3 g/kg. Blood glucose measurements were then taken 30 min, 60 min, and 120 min after this time.

The target in series [5] is T4, RUP3 receptor (Canis lupus familiaris, UniProt A0A8I3QZL6).
T4 sequence (A0A8I3QZL6 1-335): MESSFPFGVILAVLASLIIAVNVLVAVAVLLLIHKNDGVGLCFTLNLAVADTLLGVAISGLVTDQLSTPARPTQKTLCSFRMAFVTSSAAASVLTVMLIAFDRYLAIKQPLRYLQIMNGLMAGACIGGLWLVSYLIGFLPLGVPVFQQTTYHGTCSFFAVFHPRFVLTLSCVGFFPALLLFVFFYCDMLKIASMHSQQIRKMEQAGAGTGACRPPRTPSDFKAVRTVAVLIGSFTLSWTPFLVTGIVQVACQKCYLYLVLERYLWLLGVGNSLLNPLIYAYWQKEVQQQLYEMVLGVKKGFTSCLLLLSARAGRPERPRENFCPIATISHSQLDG
Kind of series: RUP3 dose response in melanophores (dog receptor). It is filed as cell-based. Here is the method:
as §1

SMILES strings stand for the structures. pEC50: −log10 of the molar value. Read-outs that look alike come from different tables or passages of the source.

For `COc1c(Nc2cnc(S(C)(=O)=O)cc2C)ncnc1OC1CCN(C(=O)OC(C)C)CC1` [Compound D, 4-[6-(6-Methanesulfonyl-4-methyl-pyridin-3-ylamino)-5-methoxypyrimidin-4-yloxy]-piperidine-1-carboxylic acid isopropyl ester], the AUC(0-t) in series [1] (dose 3 mg) is 5600 ng·h/mL; in series [1] (dose 30 mg) it was 29400 ng·h/mL; in series [1] (dose 300 mg), 54700 ng·h/mL.
In the case of `CC(C)OC(=O)N1CCC(Oc2ncnc3c2cnn3-c2ccc(S(C)(=O)=O)cc2F)CC1` [Compound A, 4-[1-(2-Fluoro-4-methanesulfonyl-phenyl)-1H-pyrazolo[3,4-d]pyrimidin-4-yloxy]-piperidine-1-carboxylic acid isopropyl ester], the AUC(0-t) is 2590 ng·h/mL in series [1] (dose 10 mg); 9930 ng·h/mL in series [1] (dose 30 mg); 133000 ng·h/mL in series [1] (dose 100 mg); 97000 ng·h/mL in series [1] (dose 300 mg); 377000 ng·h/mL in series [1] (dose 1000 mg).
`COc1c(Nc2ccc(S(C)(=O)=O)nc2C)ncnc1OC1CCN(C(=O)OC(C)C)CC1` [Compound C, 4-[6-(6-Methanesulfonyl-2-methyl-pyridin-3-ylamino)-5-methoxy-pyrimidin-4-yloxy]-piperidine-1-carboxylic acid isopropyl ester]: the AUC(0-t) came to 14900 ng·h/mL in series [1] (dose 3 mg), 65900 ng·h/mL in series [1] (dose 30 mg) and 419000 ng·h/mL in series [1] (dose 300 mg).
Regarding `COc1c(Nc2ccc(-n3cncn3)nc2C)ncnc1OC1CCN(C(=O)OC(C)C)CC1` [Compound of Formula (I), 4-[5-Methoxy-6-(2-methyl-6-[1,2,4]triazol-1-yl-pyridin-3-ylamino)-pyrimidin-4-yloxy]-piperidine-1-carboxylic acid isopropyl ester], the pEC50 was 8.70 at RUP3 receptor [2], 7.24 on RUP3 receptor [3], 7.09 at RUP3 receptor [4] and 8.40 at RUP3 receptor [5]. Moreover, the “dose escalation pharmacokinetics (AUC vs dose)” value in series [1] (PO 3, 30, 300 mg/Kg, FIG. 1) was “essentially linear”. Besides, the AUC(0-t) in series [1] (dose 3 mg) is 3590 ng·h/mL; in series [1] (dose 30 mg), 79800 ng·h/mL; in series [1] (dose 300 mg), 286000 ng·h/mL. In the series on Male Sprague Dawley rats, the “mean percent inhibition of glucose excursion” value came to 60%.
With `Cc1c(Nc2ccc(S(C)(=O)=O)cc2F)ncnc1OC1CCN(c2nc(C(C)C)no2)CC1` [Compound B, (2-Fluoro-4-methanesulfonyl-phenyl)-{6-[1-(3-isopropyl-[1,2,4]oxadiazol-5-yl)-piperidin-4-yloxy]-5-methyl-pyrimidin-4-yl}-amine], the AUC(0-t) in series [1] (dose 3 mg) was determined as 2120 ng·h/mL; in series [1] (dose 30 mg) it was 5990 ng·h/mL; in series [1] (dose 300 mg), 11000 ng·h/mL.
On the same counts, the results for `Cc1nc(S(C)(=O)=O)ccc1Nc1ncnc(OC2CCN(C(=O)OC(C)C)CC2)c1C` [Compound E, 4-[6-(6-methanesulfonyl-2-methyl-pyridin-3-ylamino)-5-methyl-pyrimidin-4-yloxy]-piperidine-1-carboxylic acid isopropyl ester] are 4730 ng·h/mL, 55900 ng·h/mL and 515000 ng·h/mL.
The like results for `COc1c(Nc2ccc(S(C)(=O)=O)nc2C)ncnc1OC1CCN(c2nc(C(C)C)no2)CC1` [Compound G, {6-[1-(3-Isopropyl-[1,2,4]oxadiazol-5-yl)-piperidin-4-yloxy]-5-methoxy-pyrimidin-4-yl}-(6-methanesulfonyl-2-methyl-pyridin-3-yl)-amine] were, in that order, 1660 ng·h/mL, 6470 ng·h/mL and 33800 ng·h/mL.
